Source: patent US20230235301A1, “Compounds and Methods for Treating, Ameliorating, or Preventing Herpes Ocular Keratitis” (THE TRUSTEES OF THE UNIVERSITY OF PENNSYLVANIA, priority 2020, published 2023)
Where two headings read alike, the source gives them in different places. Positions of bridges follow the written chain, without caps; N, C: chain ends. Non-standard residues stand in square brackets, D forms with d. Residues, ends and D or L forms follow the SMILES beside them. No end group written: not given here. S5 = C=CCCC[C@](C)(N)C(=O)O

Key:
HSV-1 = assay: microbe, parasite or virus in culture; type: cell-based
Protocol: Cells with ~90% confluence in 48-well plates were infected by absorbing virus (~100 PFU/well) for 1 h in 100 µL growth medium followed by adding 200 µL culture medium containing DMSO vehicle or serially diluted peptides or Acyclovir (Tocris Bioscience-Fisher Scientific) to each well of the plate. DMSO was maintained at 1% throughout the treatment. Cells were subsequently fixed and stained with 300 µL PBS containing 4% formaldehyde and 0.2% crystal violet overnight at room temperature. HSV-1 plaques were quantified at ~55 h post-infection of Vero cells. VV (WR strain) infection of BSC-1 cells was analyzed for plaque formation after 24 h. The plaque reduction assays were performed in duplicate and independently repeated twice. Cells were stained, and plaques counted under a dissecting microscope. Data were plotted on the GraphPad Prism.
Standard viral plaque reduction assays were conducted in Vero cells to determine if any of the five stapled peptides (S-pep1/3/4/7/8) that were able to block processive DNA synthesis, could also block HSV-1 infection. To minimize possible interference of HSV-1 cell attachment and entry by the peptides, cells were first infected by absorbing the virus for 1 h, followed by treatment with peptides at serial dilutions. […] The EC50 values of both S-pep3 and S-pep8 were approximately 100 µM (FIG. 15C and FIG. 15F). Additionally, S-pep4 was toxic at 12.5 µM, which precluded further optimization.

[1] = target: HSV-1 UL30 DNA Polymerase and UL42 Processivity Factor (Human herpesvirus 1, UniProt P10226); assay: In vitro processive DNA synthesis assay (ELISA-based Rapid Plate Assay); type: biochemical; details: for IC50, µM* (HSV1 UL30+UL42): inhibition of HSV-1 processive DNA synthesis in vitro by UL30 and UL42
Protocol: The assay was performed by the enzyme-linked immunosorbent assay (ELISA)-based Rapid Plate Assay (J. Virol. Methods 2000, 88:219-225; Methods Mol. Biol. 2005, 292:481-492; J. Med. Chem. 2008, 51:6563-6570), using in vitro translated viral DNA polymerase and processivity factor.
Briefly, the assay comprised a 100-nucleotide single-stranded DNA template that has biotin covalently linked to the 5′ end. The biotin-labeled oligonucleotide template was immobilized onto streptavidin, which was coated onto each well of a micro-titer plate. An oligonucleotide primer (15mer) was annealed to the 3′ end of the biotin-labeled DNA template. HSV-1 UL-30 and HSV-1 UL-42 (either in vitro translated or purified) were added and incubated with serial dilutions of the stapled peptides. DNA synthesis was measured by direct incorporation of the 4 dNTPs as well as the signal nucleotide, digoxigenin-dUTP (1:5, dig-dUTP:dTTP). A peroxidase-conjugated anti-digoxigenin antibody that recognizes the newly synthesized DNA generated a colorimetric reaction that was quantified with a plate reader at 405 nm.
In certain non-limiting embodiments, the shown staples (or tethers), which provide rigidity, had linked-spacing of one full turn (i,i+4) or two full turns (i,i+7) of the helix to stay in helical register (3.6 amino acids/turn). In other embodiments, the staple was on the solvation side of the helix. Residues on the opposite side contact the PF target protein UL42. These UL42 residues are D63, R64 and K289 (FIGS. 13A-13C). Hydrogen bonds between residues of UL42 and C-Pol are shown as dotted lines. The IC50 values recited herein were quantitated using the assay described in U.S. Pat. No. 6,204,028, which is incorporated herein in its entirety by reference (FIG. 14).

[2] = target: T1, HSV-1 Processivity Factor (UL42) (HSV-1 (strain KOS), UniProt P10226 1-488); assay: cell-based or functional assay
T1 sequence: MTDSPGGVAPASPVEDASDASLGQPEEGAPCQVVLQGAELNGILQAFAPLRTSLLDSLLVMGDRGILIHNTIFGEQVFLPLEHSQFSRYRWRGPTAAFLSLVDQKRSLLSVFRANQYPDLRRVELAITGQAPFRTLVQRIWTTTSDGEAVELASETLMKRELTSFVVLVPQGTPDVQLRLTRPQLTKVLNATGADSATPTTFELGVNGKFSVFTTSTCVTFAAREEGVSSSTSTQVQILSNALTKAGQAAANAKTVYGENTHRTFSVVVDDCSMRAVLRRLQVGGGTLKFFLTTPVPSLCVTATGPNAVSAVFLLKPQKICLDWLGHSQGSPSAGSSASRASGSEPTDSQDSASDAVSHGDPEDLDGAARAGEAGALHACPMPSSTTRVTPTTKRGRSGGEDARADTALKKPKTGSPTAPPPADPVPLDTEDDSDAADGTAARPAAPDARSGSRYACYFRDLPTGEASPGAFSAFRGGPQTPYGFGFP

`CC(=O)N[C@@H](C)C(=O)N[C@@H](CCC(=O)O)C(=O)N[C@@]1(C)CCCC=CCCC[C@@](C)(C(=O)N[C@@H](CC(C)C)C(=O)N[C@@H](Cc2c[nH]cn2)C(=O)N[C@@H](CCCNC(=N)N)C(=O)N[C@@H](C)C(=O)N[C@@H](Cc2ccccc2)C(=O)N[C@@H](CC(=O)O)C(=O)N[C@H](C(=O)N[C@@H](CC(C)C)C(=O)N[C@@H](C)C(=O)O)[C@@H](C)O)NC(=O)[C@H](CCCNC(=N)N)NC(=O)[C@H](CCCNC(=N)N)NC(=O)[C@H]([C@@H](C)O)NC1=O` [S-pep3, Ac-AEXTRRXLHRAFDTLA] (Ac-AE[S5]TRR[S5]LHRAFDTLA-OH; staple 3-7; C-terminus assumed) was tested, and the EC50 (HSV-1; 1 h) was roughly 100 µM.

With `CSCC[C@@H]1NC(=O)[C@H](CCCNC(=N)N)NC(=O)[C@H](CCCNC(=N)N)NC(=O)[C@@](C)(NC(C)=O)CCCC=CCCC[C@@](C)(C(=O)N[C@@H](Cc2c[nH]cn2)C(=O)N[C@@H](CCCNC(=N)N)C(=O)N[C@@H](C)C(=O)N[C@@H](Cc2ccccc2)C(=O)N[C@@H](CC(=O)O)C(=O)N[C@H](C(=O)N[C@@H](CC(C)C)C(=O)N[C@@H](C)C(=O)O)[C@@H](C)O)NC1=O` [S-pep5, Ac-XRRMXHRAFDTLA] (Ac-[S5]RRM[S5]HRAFDTLA-OH; staple 1-5) the IC50 [1] was greater than 200 µM and the “IC50, µM* (HSV1 UL30+UL42)” value [1] was “failed to inhibit”.

`CSCC[C@H](NC(=O)[C@H](CCCNC(=N)N)NC(=O)[C@H](CCCNC(=N)N)NC(=O)[C@@H](NC(=O)[C@H](CCC(=O)O)NC(C)=O)[C@@H](C)O)C(=O)N[C@@H](CC(C)C)C(=O)N[C@@H](Cc1c[nH]cn1)C(=O)N[C@@]1(C)CCCC=CCCC[C@@](C)(C(=O)N[C@@H](CC(C)C)C(=O)N[C@@H](C)C(=O)O)NC(=O)[C@H](CC(=O)O)NC(=O)[C@H](Cc2ccccc2)NC(=O)[C@H](C)NC1=O` [S-pep8, Ac-ETRRMLHXAFDXLA] (Ac-ETRRMLH[S5]AFD[S5]LA-OH; staple 8-12; C-terminus assumed) showed an EC50 (HSV-1; 1 h) of roughly 100 µM.

`CC(=O)N[C@@]1(C)CCCC=CCCC[C@@](C)(C(=O)N[C@@H](CC(C)C)C(=O)N[C@@H](Cc2c[nH]cn2)C(=O)N[C@@H](CCCNC(=N)N)C(=O)N[C@@H](C)C(=O)N[C@@H](Cc2ccccc2)C(=O)N[C@@H](CC(=O)O)C(=O)N[C@H](C(=O)N[C@@H](CC(C)C)C(=O)N[C@@H](C)C(=O)O)[C@@H](C)O)NC(=O)[C@H](CCCNC(=N)N)NC(=O)[C@H](CCCNC(=N)N)NC(=O)[C@H]([C@@H](C)O)NC1=O` [S-pep1, Ac-XTRRXLHRAFDTLA] (Ac-[S5]TRR[S5]LHRAFDTLA-OH; staple 1-5; C-terminus assumed) was tested, and the “IC50, µM* (HSV1 UL30+UL42)” value [1] was “successfully inhibits” and the EC50 (HSV-1; 1 h) was 43 µM.

With `CSCC[C@H](NC(=O)[C@H](CCCNC(=N)N)NC(=O)[C@H](CCCNC(=N)N)NC(=O)[C@@H](NC(=O)[C@H](CCC(=O)O)NC(C)=O)[C@@H](C)O)C(=O)N[C@@H](CC(C)C)C(=O)N[C@@H](Cc1c[nH]cn1)C(=O)N[C@@H](CCCNC(=N)N)C(=O)N[C@@H](C)C(=O)N[C@@H](Cc1ccccc1)C(=O)N[C@@H](CC(=O)O)C(=O)N[C@H](C(=O)N[C@@H](CC(C)C)C(=O)N[C@@H](C)C(=O)O)[C@@H](C)O` [N-pep, Ac-ETRRMLHRAFDTLA, reference compound] the IC50 [1] was greater than 200 µM, the “IC50, µM* (HSV1 UL30+UL42)” value ([1]; listed as Non-stapled) was “no inhibition” and the “IC50, µM* (HSV1 UL30+UL42)” value ([1]; listed as native (unstapled) C-Pol peptide) was “fails to inhibit”. The EC50 (HSV-1; 1 h) was greater than 200 µM.

In the case of `CC(=O)N[C@@H](CCC(=O)O)C(=O)N[C@H](C(=O)N[C@@H](CCCNC(=N)N)C(=O)N[C@@H](CCCNC(=N)N)C(=O)N[C@@]1(C)CCCC=CCCC[C@@](C)(C(=O)N[C@@H](Cc2ccccc2)C(=O)N[C@@H](CC(=O)O)C(=O)N[C@H](C(=O)N[C@@H](CC(C)C)C(=O)N[C@@H](C)C(=O)O)[C@@H](C)O)NC(=O)[C@H](CCCNC(=N)N)NC(=O)[C@H](Cc2c[nH]cn2)NC(=O)[C@H](CC(C)C)NC1=O)[C@@H](C)O` [S-pep7, Ac-ETRRXLHRXFDTLA] (Ac-ETRR[S5]LHR[S5]FDTLA-OH; staple 5-9; C-terminus assumed), the EC50 (HSV-1; 1 h) is reported as 35.5 µM.

`Nc1nc2c(ncn2COCCO)c(=O)[nH]1` [Acyclovir, reference compound] was tested, and the EC50 (HSV-1; Human alphaherpesvirus 1, Vero cells, peptides added after 1 h virus absorption, plaques counted at ~55 h, read-out: EC50, inhibition of HSV-1 plaque formation) was 0.81 µM.

Molecule `CC(=O)N[C@@]1(C)CCCC=CCCC[C@@](C)(C(=O)N[C@@H](CC(C)C)C(=O)N[C@@H](Cc2c[nH]cn2)C(=O)N[C@@H](CCCNC(=N)N)C(=O)N[C@@H](C)C(=O)N[C@@H](Cc2ccccc2)C(N)=O)NC(=O)[C@H](CCCNC(=N)N)NC(=O)[C@H](CCCNC(=N)N)NC(=O)[C@H]([C@@H](C)O)NC1=O` [S-pep2, Ac-XTRRXLBRAF-NH2] (Ac-[S5]TRR[S5]LHRAF-NH2; staple 1-5) has an IC50 [1] greater than 200 µM.

With Ac-RTRR[S5]LHR[S5]FDTLA (staple 5-9) [S-pep7C] the “IC50, µM (HSV1 UL30+UL42); HSV-1 DNA synthesis inhibition” value (“IC50 … HSV-1 DNA synthesis inhibition” for short) [2] was 1.7 µM.

Ac-RRTRR[S5]LHR[S5]FDTLA (staple 6-10) [S-pep7D] was tested, and the “IC50 … HSV-1 DNA synthesis inhibition” value [2] was 2 µM.

For Ac-VTRR[S5]LHR[S5]FDTLA (staple 5-9) [S-pep7A], the “IC50 … HSV-1 DNA synthesis inhibition” value [2] was 1.7 µM.

For Ac-AE[S5]TRR[S5]LHRAFDTLA (staple 3-7) [S-pep3], the “IC50 … HSV-1 DNA synthesis inhibition” value [2] was 12.7 µM.

With Ac-ETRRMLH[S5]AFD[S5]LA (staple 8-12) [S-pep8] the “IC50 … HSV-1 DNA synthesis inhibition” value [2] was 20.7 µM.

For Ac-ETRR[S5]LHR[S5]FDTLA (staple 5-9) [S-pep7], the “IC50 … HSV-1 DNA synthesis inhibition” value [2] was 5.5 µM.

In the case of Ac-[S5]RRM[S5]HRAFDTLA (staple 1-5) [S-pep5], the “IC50 … HSV-1 DNA synthesis inhibition” value [2] is reported as greater than 200 µM.

In the case of Ac-VVTRR[S5]LHR[S5]FDTLA (staple 6-10) [S-pep7B], the “IC50 … HSV-1 DNA synthesis inhibition” value [2] is reported as 1 µM.

For Ac-[S5]TRR[S5]LHRAFDTLA (staple 1-5) [S-pep1], the “IC50 … HSV-1 DNA synthesis inhibition” value [2] was 12 µM.

In the case of Ac-[S5]TRR[S5]LHRAF-NH2 (staple 1-5) [S-pep2], the “IC50 … HSV-1 DNA synthesis inhibition” value [2] is reported as greater than 200 µM.
